Measured values: paper PMC9322071, “Computer-Aided Design and Synthesis of (Functionalized quinazoline)–(α-substituted coumarin)–arylsulfonate Conjugates against Chikungunya Virus” (International Journal of Molecular Sciences, 2022)
Read-outs that look alike come from different tables or passages of the source.

Tests used:
[1] = Cytotoxicity assay (metabolic activity of compound-treated cells); settings: African green monkey
[2] = system: CHIKV Indian Ocean strain 899; assay: Anti-CHIKV CPE assay on Vero cells; settings: for EC50: Chikungunya virus, Vero; for SI: ratio of CC50 to EC50
[3] = Lipophilicity by shake-flask method
[4] = system: CHIKV; settings: cited from earlier work
[5] = system: CHIKV isolate; settings: CHIKV isolate replication; cited from earlier work
[6] = cited from earlier work
[7] = system: CHIKV; parameters: method as in PMID 23275491; settings: CHIKV inhibition; cited from earlier work

Compound | CC50 [1] [µM] | EC50 [2] [µM] | SI [2] | logP [3] | also measured
O=c1oc2cc(OS(=O)(=O)c3ccccc3)ccc2cc1CSc1nc(Nc2ccccc2)c2ccccc2n1 [Compound 2b, 2′-Oxo-3′-[([4-(phenylamino)quinazolin-2-yl]thio)methyl]-2H-chromen-7′-yl Benzenesulfonate] | 72.3 | 3.84 | 18.8 | 5.27 | fold more potent than quinazolinone conjugate 10a ([2]; EC50 comparison 2b vs 10a): 2.0 times; fold improvement of SI in comparison with 10a ([2]; SI comparison 2b vs 10a): 3.68 times
O=c1oc2cc(OS(=O)(=O)c3ccc(F)cc3)ccc2cc1CSc1nc2ccccc2c(=O)[nH]1 [Compound 10c, 2′-Oxo-3′-([(4-oxo-3,4-dihydroquinazolin-2-yl)thio]methyl)-2H-chromen-7′-yl 4″-Fluorobenzenesulfonate] | 59.7 | 6.46 | 9.24 | 3.68 | fold more potent against CHIKV than β-substituted isomer 11 ([2]; EC50 comparison 10c vs 11): ~ 3 times; fold improvement of SI in comparison with β-11 ([2]; SI comparison 10c vs 11): 5.7 times
O=c1oc2cc(OS(=O)(=O)c3ccccc3)ccc2cc1CSc1nc2ccccc2c(=O)[nH]1 [Compound 10a, 2′-Oxo-3′-([(4-oxo-3,4-dihydroquinazolin-2-yl)thio]methyl)-2H-chromen-7′-yl Benzenesulfonate] | 40.1 | 7.84 | 5.11 | 3.52 | –
O=C(NN=Cc1ccccc1)C1CC1 [benzylidene(cyclopropane)carbohydrazide] | – | – | – | – | EC50 ([4]; CHIKV-induced CPE): 5 µM; SI [4]: 14
Cc1ccc(C(=O)Nc2ccc(S(=O)(=O)O)c3cc(S(=O)(=O)O)cc(S(=O)(=O)O)c23)cc1NC(=O)c1cccc(NC(=O)Nc2cccc(C(=O)Nc3cc(C(=O)Nc4ccc(S(=O)(=O)O)c5cc(S(=O)(=O)O)cc(S(=O)(=O)O)c45)ccc3C)c2)c1 [Suramin] | – | – | – | – | EC50 [5]: ~80 µM; CC50 [6]: > 5000 µM
O=c1oc2cc(OS(=O)(=O)c3ccc([N+](=O)[O-])cc3)ccc2cc1CSc1nc2ccccc2c(=O)[nH]1 [Compound 10f, 2′-Oxo-3′-([(4-oxo-3,4-dihydroquinazolin-2-yl)thio]methyl)-2H-chromen-7′-yl 4″-Nitrobenzenesulfonate] | – | > 186 | – | 3.43 | –
COc1ccc(S(=O)(=O)Oc2ccc3cc(CSc4nc5ccccc5c(=O)[nH]4)c(=O)oc3c2)cc1 [Compound 10b, 2′-Oxo-3′-([(4-oxo-3,4-dihydroquinazolin-2-yl)thio]methyl)-2H-chromen-7′-yl 4″-Methoxybenzenesulfonate] | – | > 186 | – | 3.45 | –
O=c1oc2cc(OS(=O)(=O)c3ccc(Br)cc3)ccc2cc1CSc1nc2ccccc2c(=O)[nH]1 [Compound 10d, 2′-Oxo-3′-([(4-oxo-3,4-dihydroquinazolin-2-yl)thio]methyl)-2H-chromen-7′-yl 4″-Bromobenzenesulfonate] | 62.6 | 18.4 | 3.40 | 3.94 | –
O=c1oc2cc(OS(=O)(=O)c3ccccc3[N+](=O)[O-])ccc2cc1CSc1nc2ccccc2c(=O)[nH]1 [Compound 10e, 2′-Oxo-3′-([(4-oxo-3,4-dihydroquinazolin-2-yl)thio]methyl)-2H-chromen-7′-yl 2″-Nitrobenzenesulfonate] | 64.3 | 12.7 | 5.06 | 3.48 | –
COC(=O)C[C@](O)(CCC(C)(C)O)C(=O)O[C@@H]1C(OC)=C[C@]23CCCN2CCc2cc4c(cc2[C@H]13)OCO4 [Harringtonine, harringtonine] | – | – | – | – | EC50 [7]: 0.24 µM
